# Tested on: H1975
# Experiment: Cell anti-proliferation experiment (CTG)
# Format: cell-based
# Conditions: Homo sapiens, NCI-H1975, 72 h, H1975 (EGFR T790M/L858R), class symbol
# Description: (§1) H1975 has an EGFR: T790M/L858R double mutation, PC-9 has an EGFR exon 19 deletion, and HCC827 has an exon 19 deletion mutation. Baf3-19del- T790M -C797S (Baf3-DTC) is a stable Ba/F3 clone expressing exogenous EGFR gene bearing T790M, C797S, and […] triple amino acid mutations, purchased from KYinno. Baf3-L858R-T790M - C797S (Baf3-LTC) is a stable Ba/F3 clone expressing exogenous EGFR gene bearing […], T790M, and C797S triple mutations, purchased from KYinno. A549 is a wild-type EGFR, purchased from Nanjing Kebai Biotechnology. A431 is a wild-type EGFR, purchased from Shanghai Xinyu Biotechnology. CellCounting-Lite2.0, Trypsin EDTA, 37°C CO2 incubator, cell counter, EnVision Serial No. 1050454.
# (§2) • A) Digested logarithmic phase cells with Trypsin EDTA, added culture medium to stop the reaction, and mixing well with a pipette to prepare a cell suspension. • B) Used Vi-cell to determine cell concentration, and prepared a suspension of 15,000-25,000 cells per milliliter according to the experimental purpose and cell characteristics. • C) After prepared the cell suspension, mixed it gently and added 100 µL to each well, so that the cell density to be tested is 1500-2500 per well.
# (§3) • A) Weighed approximately 2 mg the compound and calculated the required volume of DMSO according to the formula: Compound mass (mg) * Compound purity (%) / Compound molecular weight * 1000. • B) Placed the inoculated cell culture plate into an incubator and incubated for about 24 hours. Then added compounds of varying concentrations. • C) Diluted the 10mM compound stock solution to […] with culture medium, and added the […] compound solution to the second column of the deep well plate in sequence, and added […] culture medium containing 0.5% DMSO to the third to eleventh columns. • D) Gradient dilution: Taked 125 µL solution from the second column and added it to the third column, mix well; then taked 125 µL solution from the third column and added it to the fourth column, repeated this operation until the tenth column. • E) Used a multichannel pipette, aspirated 25 µL the compound from the deep-well plate and added it to a 96-well culture plate. Repeated this process three times for each compound on the 96-well plate. This will ultimately create a concentration gradient of up to 10,000 nM at a 1:4 ratio on the 96-well plate.
# (§4) • A) The effects of the compound were observed under an inverted microscope after the 96-well plate was incubated in an incubator for 72 hours. • B) Added 25 µL CTG solution to each well, placed on a shaker for 10 minutes, and read the […] of each well.
# (§5) Calculate the % Cell Viability using the following formula: %Cell Viability = 100% × (Lum_Sample−Lum_LC)/(Lum_HC−Lum_LC) [formula] • Lum_HC: Cell readings from the 0.1% DMSO control group • Lum_Sample: Cell readings with added compound • Lum_LC: Blank culture medium reading
# (§6) The IC50 value was obtained by curve fitting using GraphPad Prism 8 software.
row,Structure (SMILES),IC50
1,COc1cc(N2CCN(C(=O)CN3CCC(c4cc5c(cc4F)c(N4CCC(=O)NC4=O)nn5C)C(F)(F)C3)CC2)c(-c2cnn(C)c2)cc1Nc1ncc(Br)c(Nc2ccccc2P(C)(C)=O)n1 (stereo not drawn) [TC-224],10 to 100 nM
2,CCc1cc(Nc2ncc(Cl)c(Nc3ccccc3P(C)(C)=O)n2)c(OC)cc1N1CCC2(CC1)CN(C(=O)CN1CCC(c3cc4c(cc3F)c(N3CCC(=O)NC3=O)nn4C)C(F)(F)C1)C2 (stereo not drawn) [TC-225],100 to 1000 nM

# Same assay, conditions: Homo sapiens, NCI-H1975, 72 h, H1975 (EGFR T790M/L858R), number after the class symbol
row,Structure (SMILES),IC50
1,CCc1cc(Nc2ncc(Cl)c(Nc3ccccc3P(C)(C)=O)n2)c(OC)cc1N1CCC2(CC1)CN(C(=O)CN1CCC(c3cc4c(cc3F)c(N3CCC(=O)NC3=O)nn4C)C(F)(F)C1)C2 (stereo not drawn) [TC-225],289 nM

# Tested on: PC-9
# Experiment: Cell anti-proliferation experiment (CTG)
# Format: cell-based
# Conditions: Homo sapiens, PC-9, 72 h, PC-9 (EGFR exon 19 deletion), class symbol
# Description: as §1, §2, §3, §4, §5, §6
row,Structure (SMILES),IC50
1,COc1cc(N2CCN(C(=O)CN3CCC(c4cc5c(cc4F)c(N4CCC(=O)NC4=O)nn5C)C(F)(F)C3)CC2)c(-c2cnn(C)c2)cc1Nc1ncc(Br)c(Nc2ccccc2P(C)(C)=O)n1 (stereo not drawn) [TC-224],100 to 1000 nM
2,CCc1cc(Nc2ncc(Cl)c(Nc3ccccc3P(C)(C)=O)n2)c(OC)cc1N1CCC2(CC1)CN(C(=O)CN1CCC(c3cc4c(cc3F)c(N3CCC(=O)NC3=O)nn4C)C(F)(F)C1)C2 (stereo not drawn) [TC-225],100 to 1000 nM

# Same assay, conditions: Homo sapiens, PC-9, 72 h, PC-9 (EGFR exon 19 deletion), number after the class symbol
row,Structure (SMILES),IC50
1,CCc1cc(Nc2ncc(Cl)c(Nc3ccccc3P(C)(C)=O)n2)c(OC)cc1N1CCC2(CC1)CN(C(=O)CN1CCC(c3cc4c(cc3F)c(N3CCC(=O)NC3=O)nn4C)C(F)(F)C1)C2 (stereo not drawn) [TC-225],432 nM

# Tested on: A549
# Experiment: Cell anti-proliferation experiment (CTG)
# Format: cell-based
# Conditions: Homo sapiens, A549, 72 h, A549 (wild-type EGFR), class symbol
# Description: as §1, §2, §3, §4, §5, §6
row,Structure (SMILES),IC50
1,COc1cc(N2CCN(C(=O)CN3CCC(c4cc5c(cc4F)c(N4CCC(=O)NC4=O)nn5C)C(F)(F)C3)CC2)c(-c2cnn(C)c2)cc1Nc1ncc(Br)c(Nc2ccccc2P(C)(C)=O)n1 (stereo not drawn) [TC-224],100 to 1000 nM
2,CCc1cc(Nc2ncc(Cl)c(Nc3ccccc3P(C)(C)=O)n2)c(OC)cc1N1CCC2(CC1)CN(C(=O)CN1CCC(c3cc4c(cc3F)c(N3CCC(=O)NC3=O)nn4C)C(F)(F)C1)C2 (stereo not drawn) [TC-225],100 to 1000 nM

# Same assay, conditions: Homo sapiens, A549, 72 h, A549 (wild-type EGFR), number after the class symbol
row,Structure (SMILES),IC50
1,CCc1cc(Nc2ncc(Cl)c(Nc3ccccc3P(C)(C)=O)n2)c(OC)cc1N1CCC2(CC1)CN(C(=O)CN1CCC(c3cc4c(cc3F)c(N3CCC(=O)NC3=O)nn4C)C(F)(F)C1)C2 (stereo not drawn) [TC-225],961 nM

# Tested on: Baf3-L858R-T790M - C797S (Baf3-LTC)
# Experiment: Cell anti-proliferation experiment (CTG)
# Format: cell-based
# Conditions: 72 h, class symbol
# Description: as §1, §2, §3, §4, §5, §6
row,Structure (SMILES),IC50
1,COc1cc(N2CCN(C(=O)CN3CCC(c4cc5c(cc4F)c(N4CCC(=O)NC4=O)nn5C)C(F)(F)C3)CC2)c(-c2cnn(C)c2)cc1Nc1ncc(Br)c(Nc2ccccc2P(C)(C)=O)n1 (stereo not drawn) [TC-224],< 10 nM
2,CCc1cc(Nc2ncc(Cl)c(Nc3ccccc3P(C)(C)=O)n2)c(OC)cc1N1CCC2(CC1)CN(C(=O)CN1CCC(c3cc4c(cc3F)c(N3CCC(=O)NC3=O)nn4C)C(F)(F)C1)C2 (stereo not drawn) [TC-225],10 to 100 nM

# Same assay, conditions: 72 h, number after the class symbol
row,Structure (SMILES),IC50
1,CCc1cc(Nc2ncc(Cl)c(Nc3ccccc3P(C)(C)=O)n2)c(OC)cc1N1CCC2(CC1)CN(C(=O)CN1CCC(c3cc4c(cc3F)c(N3CCC(=O)NC3=O)nn4C)C(F)(F)C1)C2 (stereo not drawn) [TC-225],16.7 nM

# Tested on: Baf3-19del- T790M -C797S (Baf3-DTC)
# Experiment: Cell anti-proliferation experiment (CTG)
# Format: cell-based
# Conditions: 72 h, class symbol
# Description: as §1, §2, §3, §4, §5, §6
row,Structure (SMILES),IC50
1,COc1cc(N2CCN(C(=O)CN3CCC(c4cc5c(cc4F)c(N4CCC(=O)NC4=O)nn5C)C(F)(F)C3)CC2)c(-c2cnn(C)c2)cc1Nc1ncc(Br)c(Nc2ccccc2P(C)(C)=O)n1 (stereo not drawn) [TC-224],< 10 nM
2,CCc1cc(Nc2ncc(Cl)c(Nc3ccccc3P(C)(C)=O)n2)c(OC)cc1N1CCC2(CC1)CN(C(=O)CN1CCC(c3cc4c(cc3F)c(N3CCC(=O)NC3=O)nn4C)C(F)(F)C1)C2 (stereo not drawn) [TC-225],10 to 100 nM

# Same assay, conditions: 72 h, number after the class symbol
row,Structure (SMILES),IC50
1,CCc1cc(Nc2ncc(Cl)c(Nc3ccccc3P(C)(C)=O)n2)c(OC)cc1N1CCC2(CC1)CN(C(=O)CN1CCC(c3cc4c(cc3F)c(N3CCC(=O)NC3=O)nn4C)C(F)(F)C1)C2 (stereo not drawn) [TC-225],13.5 nM

# Tested on: A431
# Experiment: Cell anti-proliferation experiment (CTG)
# Format: cell-based
# Conditions: Homo sapiens, A-431, 72 h, A431 (wild-type EGFR), class symbol
# Description: as §1, §2, §3, §4, §5, §6
row,Structure (SMILES),IC50
1,COc1cc(N2CCN(C(=O)CN3CCC(c4cc5c(cc4F)c(N4CCC(=O)NC4=O)nn5C)C(F)(F)C3)CC2)c(-c2cnn(C)c2)cc1Nc1ncc(Br)c(Nc2ccccc2P(C)(C)=O)n1 (stereo not drawn) [TC-224],100 to 1000 nM
2,CCc1cc(Nc2ncc(Cl)c(Nc3ccccc3P(C)(C)=O)n2)c(OC)cc1N1CCC2(CC1)CN(C(=O)CN1CCC(c3cc4c(cc3F)c(N3CCC(=O)NC3=O)nn4C)C(F)(F)C1)C2 (stereo not drawn) [TC-225],> 1000 nM

# Same assay, conditions: Homo sapiens, A-431, 72 h, A431 (wild-type EGFR), number after the class symbol
row,Structure (SMILES),IC50
1,CCc1cc(Nc2ncc(Cl)c(Nc3ccccc3P(C)(C)=O)n2)c(OC)cc1N1CCC2(CC1)CN(C(=O)CN1CCC(c3cc4c(cc3F)c(N3CCC(=O)NC3=O)nn4C)C(F)(F)C1)C2 (stereo not drawn) [TC-225],1610 nM

# Tested on: HCC827
# Experiment: Cell anti-proliferation experiment (CTG)
# Format: cell-based
# Conditions: Homo sapiens, HCC827, 72 h, HCC827 (exon 19 deletion), class symbol
# Description: as §1, §2, §3, §4, §5, §6
row,Structure (SMILES),IC50
1,COc1cc(N2CCN(C(=O)CN3CCC(c4cc5c(cc4F)c(N4CCC(=O)NC4=O)nn5C)C(F)(F)C3)CC2)c(-c2cnn(C)c2)cc1Nc1ncc(Br)c(Nc2ccccc2P(C)(C)=O)n1 (stereo not drawn) [TC-224],10 to 100 nM
2,CCc1cc(Nc2ncc(Cl)c(Nc3ccccc3P(C)(C)=O)n2)c(OC)cc1N1CCC2(CC1)CN(C(=O)CN1CCC(c3cc4c(cc3F)c(N3CCC(=O)NC3=O)nn4C)C(F)(F)C1)C2 (stereo not drawn) [TC-225],100 to 1000 nM

# Same assay, conditions: Homo sapiens, HCC827, 72 h, HCC827 (exon 19 deletion), number after the class symbol
row,Structure (SMILES),IC50
1,CCc1cc(Nc2ncc(Cl)c(Nc3ccccc3P(C)(C)=O)n2)c(OC)cc1N1CCC2(CC1)CN(C(=O)CN1CCC(c3cc4c(cc3F)c(N3CCC(=O)NC3=O)nn4C)C(F)(F)C1)C2 (stereo not drawn) [TC-225],576 nM

# — patent publication EP4813979A1, “COMPOUND FOR EGFR PROTEIN DEGRADATION AND USE THEREOF” (TYK Medicines, Inc., priority 2023, dated 2025)
